The numbers were not newly measured in US20190352262A1, “New Pleuromutilin Antibiotic Compounds, Compositions and Methods of Use and Synthesis” (YALE UNIVERSITY, priority 2017, published 2019), which cites them from elsewhere.

The data set concerns Gram-positive bacteria. The settings on record: background statement, no data of the applicant.

Each structure is given as a SMILES string. “Also recorded” adds a separate entry of the source.

Take `C=C[C@]1(C)C[C@@H](O)[C@]2(C)[C@H](C)CC[C@]3(CCC(=O)[C@H]32)[C@@H](C)[C@@H]1O` [(+)-mutilin]: the “antibacterial activity (growth inhibition of Gram-positive bacteria)” value is “not active; also recorded: largely inactive”.
With `C=C[C@]1(C)C[C@@H](OC(=O)CO)[C@@]2(C)C3C(=O)CC[C@@]3(CC[C@H]2C)[C@H](C)C1O` (single isomer, unassigned; (+)) [(+)-Pleuromutilin, (+)-pleuromutilin], the “antibacterial activity (growth inhibition of Gram-positive bacteria)” value is on record as “inhibit the growth”.
